Test results: publication PMC12036557, “Functional Imaging of CYP3A4 at Multiple Dimensions Using an AI‐Driven High Performance Fluorogenic Substrate” (Small (Weinheim an Der Bergstrasse, Germany), 2025)
Where two headings read alike, the source gives them in different places.

What was measured:
CYP3A4 [1] = target: T1, CYP3A4 (Homo sapiens, UniProt P08684); design: expressed in transfected cells; host or cells: CHO-3A4 stably transfected cell line; conditions: cited from earlier work; for Specificity / cell-membrane permeability (Shortages): previously reported fluorescent substrates; for Specificity: ref 7-10 of the supplement; for cell-membrane permeability (Shortages): 9 of the supplement
hCYP3A4 in HLMs [2] = target: T2, hCYP3A4 in HLMs (Homo sapiens, UniProt P08684); experiment: NFa-based screening and characterizing of hCYP3A4 inhibitors in HLMs; conditions: inhibitor 1 μM, HLMs, NFa as fluorogenic substrate
hCYP3A4 in HLMs [3] = target: T2, hCYP3A4 in HLMs; conditions: 1 µM
[4] = Metabolic stability assay of 4-HNFa in phase II metabolizing system; format: in vitro ADME; conditions: human, pH 7.4; HLMs in the presence of UDPGA; read-out: metabolic half-life t1/2
CYP3A4 [5] = target: T1, CYP3A4; experiment: Enzyme kinetic analyses of NFs 4-hydroxylation by hCYP3A4; format: biochemical; design: purchased Cypex
[6] = test system: panel of human recombinant cytochrome P450 enzymes; experiment: P450 reaction phenotyping analysis; format: biochemical; conditions: each recombinant CYP 2.5 nM, 37 °C, 30 min
[7] = test system: MCF‐7, Hep3B, and U87 cells; experiment: Cytotoxicity assays; format: cell-based
[8] = Optical properties, photostability and pH stability of NFa and 4-HNFa; format: physicochemical; design: maximum UV absorption: unit not given here
CYP3A4 [9] = target: T1, CYP3A4; experiment: in vitro; conditions: pH 7.4

T1 sequence (P08684 whole entry): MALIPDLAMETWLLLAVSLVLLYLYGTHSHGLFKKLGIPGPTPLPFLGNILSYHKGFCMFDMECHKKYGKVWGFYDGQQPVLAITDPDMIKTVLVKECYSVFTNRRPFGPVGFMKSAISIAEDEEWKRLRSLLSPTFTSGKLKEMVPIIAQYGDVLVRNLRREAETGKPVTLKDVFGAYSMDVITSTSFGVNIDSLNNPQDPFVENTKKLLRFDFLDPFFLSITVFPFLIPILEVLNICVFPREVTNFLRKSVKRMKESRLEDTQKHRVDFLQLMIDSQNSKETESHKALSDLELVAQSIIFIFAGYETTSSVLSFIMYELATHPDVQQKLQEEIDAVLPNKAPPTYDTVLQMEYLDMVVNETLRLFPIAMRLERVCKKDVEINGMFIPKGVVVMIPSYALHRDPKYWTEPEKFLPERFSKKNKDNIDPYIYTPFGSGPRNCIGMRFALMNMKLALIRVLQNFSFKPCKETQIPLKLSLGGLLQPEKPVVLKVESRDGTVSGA
T2 sequence (P08684 whole entry): as above

For `O=C(OCc1ccccc1)c1ccccc1-c1c2ccc(=O)cc-2oc2cc(OCc3ccccc3)ccc12` [DBF, dibenzylfluorescein], the Specificity (CYP3A4 [1]) is given as “CYP2C8, CYP3A4, CYP3A5”.
For `CC(C)=CCCC(C)(O)[C@H]1CC[C@]2(C)[C@@H]1[C@H](O)C[C@@H]1[C@@]3(C)CC[C@H](O)C(C)(C)[C@@H]3CC[C@]12C` (stereo in doubt) [Protopanaxadiol], the Residual activity (hCYP3A4 in HLMs [2]) was 69.66%.
`C=CC(C)(C)c1cc(/C=C/C(=O)c2ccc(O)cc2)c(OC)cc1O` [Licochalcone A] showed a Residual activity (hCYP3A4 in HLMs [2]) of 39.20%.
Work on `O=C1C[C@@H](c2ccc(O)cc2)Oc2cc(O)ccc21` [Liquiritigenin] yielded a Residual activity (hCYP3A4 in HLMs [2]) of 90.60%.
`COc1cc2c(cc1OC)-c1cc3ccc4c(c3c[n+]1CC2)OCO4` [Epiberberine] showed a Residual activity (hCYP3A4 in HLMs [2]) of 89.82%.
`CCN1C[C@]2(OC(=O)c3ccccc3NC(C)=O)CC[C@H](OC)[C@@]34[C@@H]2C[C@@H]([C@@H]13)[C@@]1(O)C[C@H](OC)[C@H]2C[C@@H]4[C@]1(O)[C@H]2OC` [Lappaconitine] gave a Residual activity (hCYP3A4 in HLMs [2]) of 94.46%.
Sanggenone C showed a Residual activity (hCYP3A4 in HLMs [3]) of 92.64%.
In the case of `O=c1ccc2ccc(O)cc2o1` [7‐hydroxycoumarin, reference compound], the half-life at 20 μM [4] is reported as 16.9 min.
Work on `CC(C)=CCc1cc(C(=O)/C=C/c2ccc(O)cc2)c(O)cc1O` [Bavachalcone] yielded a Residual activity (hCYP3A4 in HLMs [2]) of 90.43%.
For `Cc1nc(CN2C(=O)c3cccc4cccc(c34)C2=O)cs1` [NFb, N-(2-Methyl-4-thiazolemethanamino)-naphtahlimide], the “CL int (V max/K m)” value (CYP3A4 [5]) was 558 µL min^−1/nmol hCYP3A4, the K m (CYP3A4 [5]) was 7.51 ± 0.49 µM and the “isoform specificity as P450 substrate” value [6] was “highly specific substrates for hCYP3A4”.
With `O=C1c2cccc3c(O)ccc(c23)C(=O)N1Cc1cscn1` [4-HNFa, 4-Hydroxyl-N-(4-thiazolemethanamino)-naphtahlimide] the half-life at 20 μM [4] was 58.6 min, the cytotoxicity [7] was “weak cytotoxicity” and the “Fluorescence quantum yield Φf” value [8] was 0.129. For the same compound, the “Molar extinction coefficient ε” value [8] was 25300 M⁻¹ cm⁻¹, the “maximum UV absorption” value [8] was 450 and the maximum fluorogenic emission [8] was 555 nm. The “pH range of stable fluorescence signals ≈555 nM” value ([8]; 2 μM) was 6.5–12.0 and the photostability ([8]; continuous illumination at 450 nm) was “good photostability”.
In the case of `CCN1C(=O)c2cccc3cccc(c23)C1=O` [NEN, N‐ethyl‐1,8‐naphthalimide], the “cell‐membrane permeability” value (CYP3A4 [1]) is given as “very poor cell‐membrane permeability”, the “cell-membrane permeability (Shortages)” value (CYP3A4 [1]) is given as “low cell-membrane permeability; unavailable in vivo” and the Specificity (CYP3A4 [1]) is given as “CYP3A4 specific substrate”.
Compound `COc1cc2c(cc1O)[C@@H](Cc1ccc(O)c(Oc3ccc(C[C@@H]4c5cc(OC)c(OC)cc5CCN4C)cc3)c1)N(C)CC2` [Daurisoline] has a Residual activity (hCYP3A4 in HLMs [2]) of 91.85%.
In the case of `O=c1cc(C(F)(F)F)c2ccc(OCc3ccccc3)cc2o1` [BFC, 7-benzyloxy-4-trifluoromethylcoumarin], the Specificity (CYP3A4 [1]) is listed as “CYP3A4 non-specific substrate”.
In the case of `O=c1ccc2nc3ccc(OCc4ccccc4)cc3oc-2c1` [BzRes, 7-benzyloxyresorufin], the “cell-membrane permeability (Shortages)” value (CYP3A4 [1]) is listed as “low cell-membrane permeability; unavailable in vivo” and the Specificity (CYP3A4 [1]) is listed as “CYP3A4 non-specific substrate”.
`COc1c(/C=C/C(=O)c2ccc(O)cc2)ccc(O)c1CC=C(C)C` [Licochalcone C] showed a Residual activity (hCYP3A4 in HLMs [3]) of 59.04%.
Compound `COc1cc2c(=O)n(C)c3c4cc5c(cc4ccc3c2cc1OC)OCO5` [Oxynitidine] has a Residual activity (hCYP3A4 in HLMs [2]) of 89.98%.
Work on `COc1ccc(-c2oc3c(CC=C(C)C)c(O)cc(O)c3c(=O)c2O)cc1` [Anhydroicaritin] yielded a Residual activity (hCYP3A4 in HLMs [2]) of 87.82%.
With `COc1ccc2c(c1)[nH]c1c(C)nccc12` [Harmine] the activity at 1 µM (CYP3A4 [9]) was 101%.
For `C=CCc1ccc(O)c(-c2cc(CC=C)ccc2O)c1` [Magnolol], the activity at 1 µM (CYP3A4 [9]) was 106%.
`O[C@H]1[C@H]2c3cc4c(cc3CN3CCC(=C[C@@H]1O)[C@H]23)OCO4` [Lycorine] gave an activity at 1 µM (CYP3A4 [9]) of 92.1%.
Work on `CC(C)=CCC[C@](C)(O)[C@H]1CC[C@]2(C)[C@@H]1[C@H](O)C[C@@H]1[C@@]3(C)CC[C@H](O)C(C)(C)[C@@H]3[C@@H](O)C[C@]12C` [Protopanaxatriol] yielded a Residual activity (hCYP3A4 in HLMs [2]) of 43.85%.
With `CN1[C@@H]2C[C@@H](OC(=O)[C@H](CO)c3ccccc3)C[C@H]1[C@@H]1O[C@@H]12` [Scopolamine] the activity at 1 µM (CYP3A4 [9]) was 98.8%.
For `COc1ccc(-c2cc(=O)c3c(O)c(OC)c(O)c(OC)c3o2)cc1` [Lysionotin], the Residual activity (hCYP3A4 in HLMs [2]) was 96.88%.
With `O=C1c2c(O)cc(O)cc2O[C@H](c2ccc(O)cc2)[C@H]1O` [Aromadendrin] the Residual activity (hCYP3A4 in HLMs [2]) was 91.70%.
For `CC(C)c1nc(CN2C(=O)c3cccc4cccc(c34)C2=O)cs1` [NFd, N-(2-Isopropyl-4-thiazolemethanamino)-naphtahlimide], the “CL int (V max/K m)” value (CYP3A4 [5]) was 504 µL min^−1/nmol hCYP3A4, the K m (CYP3A4 [5]) was 4.17 ± 0.21 µM and the “isoform specificity as P450 substrate” value [6] was “highly specific substrates for hCYP3A4”.
